Several values for one entry are separate records, joined by “and”; a condition that tells them apart may be missing. Equal entries are not always repeated.
Target: T1, human TAS2R1 (Homo sapiens, UniProt Q9NYW7)
T1 construct: expressed in transfected cells; host or cells: HEK293T-Gα16gust44
T1 sequence (Q9NYW7 1-299): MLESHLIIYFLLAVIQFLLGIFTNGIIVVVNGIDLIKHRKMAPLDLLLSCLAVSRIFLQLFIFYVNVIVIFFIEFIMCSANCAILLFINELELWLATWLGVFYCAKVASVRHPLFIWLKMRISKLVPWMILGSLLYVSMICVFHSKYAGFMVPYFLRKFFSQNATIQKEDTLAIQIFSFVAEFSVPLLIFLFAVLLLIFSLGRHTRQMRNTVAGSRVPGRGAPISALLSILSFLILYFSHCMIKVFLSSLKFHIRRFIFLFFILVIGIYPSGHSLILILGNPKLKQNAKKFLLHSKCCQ
Assay: Calcium imaging assay (FLIPR), HEK293T-Gα16gust44 cells transfected with human TAS2R1
Assay type: cell-based
How it was run: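 Fluo-4 calcium responses; ΔF/F corrected for mock transfection and buffer control; triplicate independent dose-response runs; p < 0.01 threshold.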

Efficacy = maximal amplitude (ΔF/F) (TAS2R1, bile acids, mean): 0.1325 | Efficacy (maximal amplitude ΔF/F), individual data points (TAS2R1, bile acids, single replicates, listed as GCA): 0.1311 and 0.1247 and 0.1416 | RLU (Time 0 s (second time grid)): 0 RLU | RLU (Time 2 s): 1.34 RLU | RLU (Time 4 s): -10.9328 RLU | RLU (Time 6 s): -2.093 RLU | RLU (Time 8 s): -18.797 RLU | RLU (Time 12 s): -1.765 RLU | RLU (Time 14 s): -6.3 RLU | RLU (Time 16 s): 4.111 RLU | RLU (Time 18 s): 11.3452 RLU | RLU (Time 18.781 s): -8.381 RLU | RLU (Time 20.781 s): -65.4734 RLU | RLU (Time 22.781 s): -29.3432 RLU | RLU (Time 24.781 s): 49.9011 RLU | RLU (Time 26.781 s): 96.1968 RLU | RLU (Time 28.781 s): 184.074 RLU | RLU (Time 30.781 s): 256.685 RLU | RLU (Time 32.781 s): 311.082 RLU | RLU (Time 34.781 s): 379.127 RLU | RLU (Time 36.781 s): 406.227 RLU | RLU (Time 38.781 s): 484.171 RLU | RLU (Time 40.781 s): 488.749 RLU | RLU (Time 42.781 s): 562.235 RLU | RLU (Time 44.781 s): 571.006 RLU | RLU (Time 46.781 s): 594.154 RLU | RLU (Time 48.781 s): 570.694 RLU | RLU (Time 50.781 s): 587.34 RLU | RLU (Time 52.781 s): 583.343 RLU | RLU (Time 54.781 s): 607.705 RLU | RLU (Time 56.781 s): 600.065 RLU | RLU (Time 58.781 s): 617.139 RLU | RLU (Time 60.781 s): 617.101 RLU | RLU (Time 62.781 s): 619.569 RLU | RLU (Time 64.781 s): 627.557 RLU | RLU (Time 66.781 s): 602.719 RLU | RLU (Time 68.781 s): 631.839 RLU | RLU (Time 70.781 s): 609.358 RLU | RLU (Time 72.781 s): 606.454 RLU | RLU (Time 74.781 s): 603.445 RLU | RLU (Time 76.781 s): 621.396 RLU | RLU (Time 78.781 s): 618.749 RLU | RLU (Time 80.781 s): 605.728 RLU | RLU (Time 82.781 s): 588.632 RLU | RLU (Time 84.781 s): 592.001 RLU | RLU (Time 86.781 s): 573.367 RLU | RLU (Time 88.781 s): 587.481 RLU | RLU (Time 90.781 s): 582.427 RLU | RLU (Time 92.781 s): 543.758 RLU | RLU (Time 94.781 s): 568.088 RLU | RLU (Time 96.781 s): 550.308 RLU | RLU (Time 98.781 s): 566.578 RLU | RLU (Time 100.781 s): 550.017 RLU | RLU (Time 102.781 s): 549.55 RLU | RLU (Time 104.781 s): 541.673 RLU | RLU (Time 106.781 s): 534.917 RLU | RLU (Time 108.781 s): 501.47 RLU | RLU (Time 110.781 s): 477.052 RLU | RLU (Time 112.781 s): 487.765 RLU | RLU (Time 114.781 s): 493.52 RLU | RLU (Time 116.781 s): 450.802 RLU | RLU (Time 118.781 s): 454.358 RLU | RLU (Time 120.781 s): 451.439 RLU | RLU (Time 122.781 s): 430.145 RLU | RLU (Time 124.781 s): 453.415 RLU | RLU (Time 126.781 s): 442.632 RLU | RLU (Time 128.781 s): 400.74 RLU | RLU (Time 130.781 s): 403.872 RLU | RLU (Time 132.781 s): 393.75 RLU | RLU (Time 134.781 s): 397.711 RLU | RLU (Time 136.781 s): 397.074 RLU | RLU (Time 137.547 s): 371.152 RLU | RLU (Time 143.547 s): 348.952 RLU | RLU (Time 149.547 s): 319.38 RLU | RLU (Time 155.547 s): 291.839 RLU | RLU (Time 161.547 s): 291.362 RLU | RLU (Time 167.547 s): 251.037 RLU | RLU (Time 173.547 s): 217.997 RLU | RLU (Time 179.547 s): 213.168 RLU | RLU (Time 185.547 s): 202.093 RLU | RLU (Time 191.547 s): 176.088 RLU | RLU (Time 197.547 s): 167.876 RLU | RLU (Time 203.547 s): 164.283 RLU | RLU (Time 209.547 s): 146.788 RLU | RLU (Time 215.547 s): 144.843 RLU | RLU (Time 221.547 s): 126.114 RLU | RLU (Time 227.547 s): 89.1702 RLU | RLU (Time 233.547 s): 107.472 RLU | RLU (Time 239.547 s): 82.2731 RLU | RLU (Time 245.547 s): 57.4201 RLU | RLU (Time 293.547 s): 58.9267 RLU | RLU (Time 299.547 s): 40.6004 RLU | RLU (calcium trace, sheet TAS2R1, Time 305.547 s): 58.5113 RLU | RLU (calcium trace, sheet TAS2R1, Time 311.547 s): 53.2069 RLU | RLU (calcium trace, sheet TAS2R1, Time 317.547 s): 43.3091 RLU | RLU (calcium trace, sheet TAS2R1, Time 323.547 s): 43.6147 RLU | RLU (calcium trace, sheet TAS2R1, Time 329.547 s): 33.081 RLU | RLU (calcium trace, sheet TAS2R1, Time 335.547 s): 47.1496 RLU | RLU (calcium trace, sheet TAS2R1, Time 341.547 s): 32.1596 RLU | RLU (calcium trace, sheet TAS2R1, Time 347.547 s): 48.6454 RLU | RLU (calcium trace, sheet TAS2R1, Time 353.547 s): 51.461 RLU | RLU (calcium trace, sheet TAS2R1, Time 359.547 s): 49.6251 RLU | Δ F/F (conc. 0,01 mM, TAS2R1): 0.004283 | Δ F/F (conc. 0,1 mM, TAS2R1): 0.04907 | Δ F/F (conc. 0,03 mM, TAS2R1): 0.009584 | Δ F/F (conc. 0,3 mM, TAS2R1): 0.1325 | Δ F/F (conc. 0,001 mM, TAS2R1): 0.006338 | Δ F/F (conc. 0,003 mM, TAS2R1): -0.001187 | Activation threshold concentration TAS2R1 (lowest concentration with significantly increased fluorescence vs empty vector (p < 0.01)): 100 µM and 100.00 µM
Compound: C[C@H](CCC(=O)NCC(=O)O)[C@H]1CC[C@H]2[C@@H]3[C@H](O)C[C@@H]4C[C@H](O)CC[C@]4(C)[C@H]3C[C@H](O)[C@]12C [Glycocholic Acid, glycocholic acid]
